Results taken from patent US5280125A, “Chemical process for the preparation of 3-alkylated indole” (Imperial Chemical Industries PLC, priority 1990, dated 1994).

Tests used:
[1] = tested on: LTC4, LTD4 and/or LTE4; experiment: in vitro leukotriene antagonist tests (guinea-pig tracheal strip preparation or receptor-ligand binding assay); conditions: in one of the above in vitro tests
[2] = tested on: leukotriene LTD4; experiment: guinea-pig aerosol test (LTD4 aerosol challenge, onset of dyspnea); format: in vivo
Procedure: According to this procedure, guinea-pigs are pre-dosed with test compound as a solution in poly(ethylene glycol) (generally 1 hour) before an aerosol challenge of leukotriene LTD4 (starting with 2 ml of a 30 microgram/ml solution) and the effect of the test compound on the average time of leukotriene initiated change in breathing pattern (such as onset of dyspnea) recorded and compared with that in undosed, control guinea-pigs. Percent protection engendered by a test compound was calculated from the time delay to the onset of dyspnea compared to that for control animals.

concentration showing statistically significant activity as LTC4, LTD4 and/or LTE4 antagonist [1] | Structure (SMILES) | ED50 ([2]; Cavia porcellus, 1 h, oral administration, protection against LTD4 aerosol-induced dyspnea) | untoward side-effects ([2]; oral, at several multiples of the minimum effective dose)
≤ 10^-8 M | COc1cc(C(=O)NS(=O)(=O)c2ccccc2C)ccc1Cc1cn(C)c2ccc(C(=O)NCC(C)CC(F)(F)F)cc12 (stereo not drawn) [compound of formula I, 4-[5-(N-[4,4,4-trifluoro-2-methylbutyl]carbamoyl)-1-methylindol-3-ylmethyl]-3-methoxy-N-o-tolylsulphonylbenzamide] | – | –
– | COc1cc(C(=O)NS(=O)(=O)c2ccccc2C)ccc1Cc1cn(C)c2ccc(C(=O)NC[C@H](C)CC(F)(F)F)cc12 [compound of formula I substantially in the form of the (R)-enantiomer, (R)-4-[5-(N-[4,4,4-trifluoro-2-methylbutyl]carbamoyl)-1-methylindol-3-yl-methyl]-3-methoxy-N-o-tolylsulphonylbenzamide] | 1.1 µmol/kg | without any indication of untoward side-effects
